According to patent US12077503B2, “Substituted cyclic amides and their use as herbicides” (FMC CORPORATION, priority 2015, dated 2024):

Tests used:
Type in all cases: in vivo
[1] = system: velvetleaf (Abutilon theophrasti); assay: Test G Post-Emergence Protocol; settings: Abutilon theophrasti, post-emergence, 312 h
Method in brief: (§1)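 Eight days post-sowing, plants received a spray of test compound (acetone/water 50:50, 0.5% Tween 20) at 15.625, 62.5 or 250 g/ha. Glasshouse regime thereafter: 24/16 °C, 14 h light, 65% humidity. Assessment after 13 days on a 0–100 damage scale.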

[2] = system: giant foxtail (Setaria faberi); assay: Test G Post-Emergence Protocol; settings: Setaria faberi, post-emergence, 312 h
Method in brief: as §1

[3] = system: ivy-leaved morning glory (Ipomoea hederacea); assay: Test G Post-Emergence Protocol; settings: Ipomoea, post-emergence, 312 h
Method in brief: as §1

[4] = system: corn (Zea mays); assay: Test G Post-Emergence Protocol; settings: Zea mays, post-emergence, 312 h
Method in brief: as §1

[5] = system: barnyardgrass (Echinochloa crus-galli); assay: Test G Post-Emergence Protocol; settings: Echinochloa crus-galli, post-emergence, 312 h
Method in brief: as §1

[6] = system: redroot pigweed (Amaranthus retroflexus); assay: Test G Post-Emergence Protocol; settings: Amaranthus retroflexus, post-emergence, 312 h
Method in brief: as §1

[7] = system: velvetleaf (Abutilon theophrasti); assay: Test G Pre-Emergence Protocol; settings: Abutilon theophrasti, pre-emergence, 312 h, evaluated after 13 days
Method in brief: (§2)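 Scores are visual damage ratings from 0 (no damage) to 100 (total plant kill), taken 13 days after treatment. Compound was sprayed one day post-sowing at 15.625, 62.5 or 250 g/ha in 50:50 acetone/water with 0.5% Tween 20.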

[8] = system: giant foxtail (Setaria faberi); assay: Test G Pre-Emergence Protocol; settings: Setaria faberi, pre-emergence, 312 h, evaluated after 13 days
Method in brief: as §2

[9] = system: ivy-leaved morning glory (Ipomoea hederacea); assay: Test G Pre-Emergence Protocol; settings: Ipomoea, pre-emergence, 312 h, evaluated after 13 days
Method in brief: as §2

[10] = system: corn (Zea mays); assay: Test G Pre-Emergence Protocol; settings: Zea mays, pre-emergence, 312 h, evaluated after 13 days
Method in brief: as §2

[11] = system: barnyardgrass (Echinochloa crus-galli); assay: Test G Pre-Emergence Protocol; settings: Echinochloa crus-galli, pre-emergence, 312 h, evaluated after 13 days
Method in brief: as §2

[12] = system: redroot pigweed (Amaranthus retroflexus); assay: Test G Pre-Emergence Protocol; settings: Amaranthus retroflexus, pre-emergence, 312 h, evaluated after 13 days
Method in brief: as §2

CN1C[C@@H](c2ccc(C(F)(F)F)cc2)[C@H](C(=O)Nc2c[nH]nc2C(F)(F)F)C1=O (racemic) [Compound 1535]
40%: pest or weed control at 250 g/ha ([12]; 250 g ai/ha, read-out: Pigweed, Redroot damage rating (100=total damage to plant; 0=no damage to plant))
0%: pest or weed control at 15.625 g/ha ([1]; 15.625 g ai/ha, evaluated after 13 days (100=total damage to plant; 0=no damage to plant), read-out: Velvetleaf damage rating) | pest or weed control at 62.5 g/ha ([1]; 62.5 g ai/ha, evaluated after 13 days, read-out: Velvetleaf damage rating (100=total damage to plant; 0=no damage to plant)) | pest or weed control at 250 g/ha ([1]; 250 g ai/ha, evaluated after 13 days, read-out: damage to plant, Velvetleaf (100=total damage to plant; 0=no damage to plant)) | pest or weed control at 15.625 g/ha ([2]; 15.625 g ai/ha, evaluated after 13 days (100=total damage to plant; 0=no damage to plant), read-out: Foxtail, Giant damage rating) | pest or weed control at 62.5 g/ha ([2]; 62.5 g ai/ha, evaluated after 13 days, read-out: Foxtail, Giant damage rating (100=total damage to plant; 0=no damage to plant)) | pest or weed control at 250 g/ha ([2]; 250 g ai/ha, evaluated after 13 days, read-out: damage to plant, Foxtail, Giant (100=total damage to plant; 0=no damage to plant)) | pest or weed control at 15.625 g/ha ([3]; 15.625 g ai/ha, evaluated after 13 days (100=total damage to plant; 0=no damage to plant), read-out: Morningglory, Ivy-leaved damage rating) | pest or weed control at 62.5 g/ha ([3]; 62.5 g ai/ha, evaluated after 13 days, read-out: Morningglory, Ivy-leaved damage rating (100=total damage to plant; 0=no damage to plant)) | pest or weed control at 250 g/ha ([3]; 250 g ai/ha, evaluated after 13 days, read-out: damage to plant, Morningglory, Ivy-leaved (100=total damage to plant; 0=no damage to plant)) | plant injury at 15.625 g/ha ([4]; 15.625 g ai/ha, evaluated after 13 days (100=total damage to plant; 0=no damage to plant), read-out: Corn damage rating) | plant injury at 62.5 g/ha ([4]; 62.5 g ai/ha, evaluated after 13 days, read-out: Corn damage rating (100=total damage to plant; 0=no damage to plant)) | pest or weed control at 15.625 g/ha ([5]; 15.625 g ai/ha, evaluated after 13 days (100=total damage to plant; 0=no damage to plant), read-out: Barnyardgrass damage rating) | pest or weed control at 62.5 g/ha ([5]; 62.5 g ai/ha, evaluated after 13 days, read-out: Barnyardgrass damage rating (100=total damage to plant; 0=no damage to plant)) | pest or weed control at 250 g/ha ([5]; 250 g ai/ha, evaluated after 13 days, read-out: damage to plant, Barnyardgrass (100=total damage to plant; 0=no damage to plant)) | pest or weed control at 15.625 g/ha ([6]; 15.625 g ai/ha, evaluated after 13 days (100=total damage to plant; 0=no damage to plant), read-out: Pigweed, Redroot damage rating) | pest or weed control at 15.625 g/ha ([7]; 15.625 g ai/ha, read-out: Velvetleaf damage rating (100=total damage to plant; 0=no damage to plant)) | pest or weed control at 62.5 g/ha ([7]; 62.5 g ai/ha, 100=total damage to plant, 0=no damage to plant, read-out: plant damage rating, Velvetleaf) | pest or weed control at 250 g/ha ([7]; 250 g ai/ha, read-out: Velvetleaf damage rating (100=total damage to plant; 0=no damage to plant)) | pest or weed control at 15.625 g/ha ([8]; 15.625 g ai/ha, read-out: Foxtail, Giant damage rating (100=total damage to plant; 0=no damage to plant)) | pest or weed control at 62.5 g/ha ([8]; 62.5 g ai/ha, 100=total damage to plant, 0=no damage to plant, read-out: plant damage rating, Foxtail, Giant) | pest or weed control at 250 g/ha ([8]; 250 g ai/ha, read-out: Foxtail, Giant damage rating (100=total damage to plant; 0=no damage to plant)) | pest or weed control at 15.625 g/ha ([9]; 15.625 g ai/ha, read-out: Morning-glory, Ivy-leaved damage rating (100=total damage to plant; 0=no damage to plant)) | pest or weed control at 62.5 g/ha ([9]; 62.5 g ai/ha, 100=total damage to plant, 0=no damage to plant, read-out: plant damage rating, Morningglory, Ivy-leaved) | pest or weed control at 250 g/ha ([9]; 250 g ai/ha, read-out: Morningglory, Ivy-leaved damage rating (100=total damage to plant; 0=no damage to plant)) | plant injury at 15.625 g/ha ([10]; 15.625 g ai/ha, read-out: Corn damage rating (100=total damage to plant; 0=no damage to plant)) | plant injury at 62.5 g/ha ([10]; 62.5 g ai/ha, 100=total damage to plant, 0=no damage to plant, read-out: plant damage rating, Corn) | plant injury at 250 g/ha ([10]; 250 g ai/ha, read-out: Corn damage rating (100=total damage to plant; 0=no damage to plant)) | pest or weed control at 15.625 g/ha ([11]; 15.625 g ai/ha, read-out: Barnyard grass damage rating (100=total damage to plant; 0=no damage to plant)) | pest or weed control at 62.5 g/ha ([11]; 62.5 g ai/ha, 100=total damage to plant, 0=no damage to plant, read-out: plant damage rating, Barnyardgrass) | pest or weed control at 250 g/ha ([11]; 250 g ai/ha, read-out: Barnyardgrass damage rating (100=total damage to plant; 0=no damage to plant)) | pest or weed control at 15.625 g/ha ([12]; 15.625 g ai/ha, read-out: Pigweed, Redroot damage rating (100=total damage to plant; 0=no damage to plant))
30%: pest or weed control at 250 g/ha ([6]; 250 g ai/ha, evaluated after 13 days, read-out: damage to plant, Pigweed, Redroot (100=total damage to plant; 0=no damage to plant))
10%: plant injury at 250 g/ha ([4]; 250 g ai/ha, evaluated after 13 days, read-out: damage to plant, Corn (100=total damage to plant; 0=no damage to plant)) | pest or weed control at 62.5 g/ha ([6]; 62.5 g ai/ha, evaluated after 13 days, read-out: Pigweed, Redroot damage rating (100=total damage to plant; 0=no damage to plant))
20%: pest or weed control at 62.5 g/ha ([12]; 62.5 g ai/ha, 100=total damage to plant, 0=no damage to plant, read-out: plant damage rating, Pigweed, Redroot)
